Experimental data as given in ChEMBL document CHEMBL4219158 (Bioorg Med Chem Lett, 2018).
Activity calls are given as the source filed them. No cut-off for these calls is given here.

Assays:
[1] = biological target: T1, 5-hydroxytryptamine receptor 2A (Homo sapiens, UniProt P28223); assay: Antagonist activity at human recombinant 5-HT2A receptor expressed in CHOK1 cells assessed as inhibition of serotonin-induced calcium release preincubated for 15 mins followed by 5-HT addition measured every 1.7 secs for 60 secs by calcium 4 dye-based FLIPR assay; type: functional, cell-based
T1 sequence (P28223 whole entry): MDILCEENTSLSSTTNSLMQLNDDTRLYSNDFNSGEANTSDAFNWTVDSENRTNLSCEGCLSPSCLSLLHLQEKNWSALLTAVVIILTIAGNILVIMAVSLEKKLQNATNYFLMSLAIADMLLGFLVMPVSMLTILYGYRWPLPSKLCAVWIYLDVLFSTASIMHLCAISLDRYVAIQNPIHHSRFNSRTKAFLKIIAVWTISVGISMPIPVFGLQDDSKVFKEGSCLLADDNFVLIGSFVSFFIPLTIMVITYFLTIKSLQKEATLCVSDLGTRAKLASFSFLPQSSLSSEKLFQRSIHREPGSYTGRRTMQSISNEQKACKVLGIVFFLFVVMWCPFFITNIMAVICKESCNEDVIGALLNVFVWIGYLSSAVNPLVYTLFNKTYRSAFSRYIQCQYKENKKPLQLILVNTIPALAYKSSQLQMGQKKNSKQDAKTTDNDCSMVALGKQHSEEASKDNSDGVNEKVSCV

[2] = biological target: T1, 5-hydroxytryptamine receptor 2A; assay: Agonist activity at human recombinant 5-HT2A receptor expressed in CHOK1 cells assessed as induction of calcium release incubated for 15 mins measured every 1.7 secs for 60 secs by calcium 4 dye-based FLIPR assay; type: functional, cell-based

Row | Structure (SMILES) | IC50 [1] [nM] | inhibition [1] | Activity [2]
1 | COc1c(OCCOCCOCCOCCOCCOc2cccc(C(=O)C3CCN(CCc4ccc(F)cc4)CC3)c2OC)cccc1C(=O)C1CCN(CCc2ccc(F)cc2)CC1 | 29.5 | – | –
2 | COc1c(OCCOCCOc2cn(CCOCCOc3cccc([C@H](O)C4CCN(CCc5ccc(F)cc5)CC4)c3OC)nn2)cccc1[C@H](O)C1CCN(CCc2ccc(F)cc2)CC1 | 36.5 | Dose-dependent effect | inactive
3 | COc1c(OCCOCCOCCOCCOCCOCCOc2cccc(C(=O)C3CCN(CCc4ccc(F)cc4)CC3)c2OC)cccc1C(=O)C1CCN(CCc2ccc(F)cc2)CC1 | 39.8 | – | –
4 | COc1c(OCCOCCN=[N+]=[N-])cccc1[C@H](O)C1CCN(CCc2ccc(F)cc2)CC1 | 46.7 | Dose-dependent effect | inactive
5 | C#CCOCCOCCOc1cccc([C@H](O)C2CCN(CCc3ccc(F)cc3)CC2)c1OC | 56.6 | Dose-dependent effect | inactive
